Where two headings read alike, the source gives them in different places.
Experiments:
Assay type in all cases: biochemical
Cathepsin L = Cathepsin L (Homo sapiens, UniProt P07711); assay: Cathepsin L inhibition, fluorogenic peptide substrate kinetic assay (selectivity); conditions: ratio of cathepsin L inhibition constant to cathepsin S inhibition constant
Cathepsin S = Cathepsin S (Homo sapiens, UniProt P25774); assay: Cathepsin S inhibition, fluorogenic peptide substrate kinetic assay;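 also: cleavage rate of a coumarin-labelled peptide substrate (50 µM) read as fluorescence increase at Ex 380 nm and Em 450 nm, relative to inhibitor-free control reactions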
Cathepsin S, sequence (P25774 115-331, species assumed): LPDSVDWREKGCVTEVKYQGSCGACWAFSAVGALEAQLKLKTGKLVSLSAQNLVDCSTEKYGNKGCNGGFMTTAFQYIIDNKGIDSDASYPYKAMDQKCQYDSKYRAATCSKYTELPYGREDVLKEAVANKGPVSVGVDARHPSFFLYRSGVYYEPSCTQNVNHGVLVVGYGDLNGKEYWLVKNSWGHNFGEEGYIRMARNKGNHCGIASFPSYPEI

Cathepsin K = target: T1, Cathepsin K (Homo sapiens, UniProt P43235); assay: Cathepsin K inhibition, fluorogenic peptide substrate kinetic assay (selectivity); conditions: ratio of cathepsin K inhibition constant to cathepsin S inhibition constant
T1 sequence (P43235 115-329): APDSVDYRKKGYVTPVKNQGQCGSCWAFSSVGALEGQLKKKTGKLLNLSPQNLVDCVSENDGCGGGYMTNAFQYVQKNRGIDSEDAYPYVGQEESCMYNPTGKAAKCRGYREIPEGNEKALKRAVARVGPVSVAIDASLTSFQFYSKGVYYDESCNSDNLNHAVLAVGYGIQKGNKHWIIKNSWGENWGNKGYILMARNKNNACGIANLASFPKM

Cathepsin B = Cathepsin B (Homo sapiens, UniProt P07858); assay: Cathepsin B inhibition, fluorogenic peptide substrate kinetic assay (selectivity); conditions: ratio of cathepsin B inhibition constant to cathepsin S inhibition constant;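 also: value is the cathepsin B inhibition constant divided by the cathepsin S one, each from kinetic fluorescence readings (ex 380 nm, em 450 nm) of a 10 µM coumarin peptide substrate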
[1] = Cathepsin S inhibition constant, pH5.5, 20 minutes preincubation at room temperature, read-out: Ki Cat. S

Cathepsin L, sequence (P07711 114-333, species assumed): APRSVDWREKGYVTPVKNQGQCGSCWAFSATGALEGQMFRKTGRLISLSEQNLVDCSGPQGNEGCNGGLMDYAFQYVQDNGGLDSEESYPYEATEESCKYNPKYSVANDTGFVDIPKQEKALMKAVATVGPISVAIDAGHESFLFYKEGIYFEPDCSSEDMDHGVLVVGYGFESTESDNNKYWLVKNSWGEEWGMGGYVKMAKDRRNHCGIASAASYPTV

Selectivity for Cat. S over Cat. L (Cathepsin L)	Ki (Cathepsin S)	Selectivity for Cat. S over Cat. K (Cathepsin K)	Selectivity for Cat. S over Cat. B (Cathepsin B)	Ki (Cathepsin S; [1])	SMILES
+ (+, >10)		+ (+, >10)	+ (+, >10)	1000 to 10000 nM	CC1(C)CN([C@H]2COC[C@@H]2NC(=O)O[C@@H](CC2CCCCC2)C(=O)N2CCOCC2)c2ccc(F)cc21 [Example 7, [4-(R)-(5-Fluoro-3,3-dimethyl-2,3-dihydro-indol-1-yl)-tetrahydro-furan-3-(R)-yl]-carbamic acid 1-(S)-cyclohexylmethyl-2-morpholin-4-yl-2-oxo-ethyl ester]
++ (++, >100)	< 100 nM	+ (+, >10)	+++ (+++, >1000)		CCC[C@@H](CNc1ccc(OC(F)(F)F)cc1)NC(=O)[C@@H](CC(=O)N1CCOCC1)CC1CCCC1 [Example 27, 2-(R)-Cyclopentylmethyl-4-morpholin-4-yl-4-oxo-N-{1-(S)-[(4-trifluoromethoxy-phenylamino)-methyl]-butyl}-butyramide]
++ (++, >100)	< 100 nM	++ (++, >100)	+++ (+++, >1000)		O=C(N[C@H](CNc1ccc(OC(F)(F)F)cc1)c1ccccc1)[C@@H](CC(=O)N1CCOCC1)CC1CCCCC1 [Example 45, 2-(R)-Cyclohexylmethyl-4-morpholin-4-yl-4-oxo-N-[1-(S)-phenyl-2-(4-trifluoromethoxy-phenylamino)-ethyl]-butyramide]
+ (+, >10)		++ (++, >100)	+++ (+++, >1000)	< 100 nM	CC1(C)CN(C[C@@H](NC(=O)[C@H](CC2CCCCC2)NC(=O)N2CCOCC2)C2CC2)c2ccc(F)cc21 [Example 81, Morpholine-4-carboxylic acid {2-cyclohexyl-1-(S)-[1-(S)-cyclopropyl-2-(5-fluoro-3,3-dimethyl-2,3-dihydro-indol-1-yl)-ethylcarbamoyl]-ethyl}-amide]
+ (+, >10)		+ (+, >10)	++ (++, >100)	< 100 nM	COc1ccc(NC[C@H](C)NC(=O)[C@H](CC2CCCC2)NC(=O)N2CCOCC2)cc1 [Example 73, Morpholine-4-carboxylic acid {2-cyclopentyl-1-(S)-[2-(4-methoxy-phenylamino)-1-(S)-methyl-ethylcarbamoyl]-ethyl}-amide]
+ (+, >10)		+ (+, >10)	++ (++, >100)	100 to 1000 nM	Cc1cc(NC[C@H](C)NC(=O)[C@H](CC2CCCCC2)NC(=O)N2CCOCC2)no1 [Example 77, Morpholine-4-carboxylic acid {2-cyclohexyl-1-(S)-[1-(S)-methyl-2-(5-methyl-isoxazol-3-ylamino)-ethylcarbamoyl]-ethyl}-amide]
+ (+, >10)		++ (++, >100)	++ (++, >100)	< 100 nM	COc1ccc(NC[C@H](C)NC(=O)[C@H](CC2CCCCC2)NC(=O)N2CCOCC2)cc1 [Example 72, (S,S)-Morpholine-4-carboxylic acid {2-cyclohexyl-1-[2-(4-methoxy-phenylamino)-1-methyl-ethylcarbamoyl]-ethyl}-amide]
++ (++, >100)		+ (+, >10)	+++ (+++, >1000)	< 100 nM	CC(C)[C@@H](CNc1ccc(OC(F)(F)F)cc1)NC(=O)[C@@H](CC(=O)N1CCOCC1)C1CCCCC1 [Example 35, 2-(S)-Cyclohexyl-N-{2-methyl-1-(S)-[(4-trifluoromethoxy-phenylamino)-methyl]-propyl}-4-morpholin-4-yl-4-oxo-butyramide]
+ (+, >10)	1000 to 10000 nM	+ (+, >10)	+ (+, >10)		O=C(C[C@@H](CC1CCCCC1)C(=O)N1CCOCC1)NCCNc1ccc(F)cc1 [Example 9, 3-(R)-Cyclohexylmethyl-N-[2-(4-fluoro-phenylamino)-ethyl]-4-morpholin-4-yl-4-oxo-butyramide]
+++ (+++, >1000)		+++ (+++, >1000)	+++ (+++, >1000)	< 100 nM	CC[C@@H](CN1CC(C)(C)c2cc(F)ccc21)NC(=O)O[C@@H](CC1CCCCC1)C(=O)N1CCOCC1 [Example 92, (S,S)-[1-(5-Fluoro-3,3-dimethyl-2,3-dihydro-indol-1-yl-methyl)-propyl]-carbamic acid 1-cyclohexylmethyl-2-morpholin-4-yl-2-oxo-ethyl ester]
+ (+, >10)		+ (+, >10)	++ (++, >100)	100 to 1000 nM	C[C@@H](CNc1ccc(OC(F)(F)F)cc1)NC(=O)[C@H](CC1CCCC1)[C@@H](C)C(=O)N1CCOCC1 [Example 16, 2-(R)-Cyclopentylmethyl-3-(R)-methyl-N-[1-(S)-methyl-2-(4-trifluoromethoxy-phenylamino)-ethyl]-4-morpholin-4-yl-4-oxo-butyramide]

The remaining lines, values behind:

SMILES	Selectivity for Cat. S over Cat. L (Cathepsin L)	Ki (Cathepsin S)	Selectivity for Cat. S over Cat. K (Cathepsin K)	Selectivity for Cat. S over Cat. B (Cathepsin B)	Ki (Cathepsin S; [1])
C[C@@H](CNc1ccc(OC(F)(F)F)cc1)NC(=O)[C@H](CCC(C)(C)C)CC(=O)N1CCOCC1 [Example 25, 5,5-Dimethyl-2-(R)-(2-morpholin-4-yl-2-oxo-ethyl)-hexanoic acid [1-(S)-methyl-2-(4-trifluoromethoxy-phenylamino)-ethyl]-amide]	++ (++, >100)	100 to 1000 nM	++ (++, >100)	++ (++, >100)	
CCC1(O)CCCC(C[C@H](CC(=O)N2CCOCC2)C(=O)N[C@@H](C)CNc2ccc(OC(F)(F)F)cc2)C1 (stereo partly drawn) [Example 59, 2-(R)-(3-Ethyl-3-hydroxy-cyclohexylmethyl)-N-[1-(S)-methyl-2-(4-trifluoromethoxy-phenylamino)-ethyl]-4-morpholin-4-yl-4-oxo-butyramide]	+ (+, >10)		+ (+, >10)	+ (+, >10)	1000 to 10000 nM
O=C(NCCN1CCc2cc(F)ccc21)[C@H](CC1CCCCC1)NC(=O)N1CCOCC1 [Example 2, Morpholine-4-carboxylic acid {2-cyclohexyl-1-(S)-[2-(5-fluoro-2,3-dihydro-indol-1-yl)-ethylcarbamoyl]-ethyl}-amide]	+ (+, >10)		++ (++, >100)	+++ (+++, >1000)	< 100 nM
O=C(N[C@H](CNc1ccc(OC(F)(F)F)cc1)c1ccccc1)[C@@H](CC(=O)N1CCOCC1)c1ccc(Cl)cc1 [Example 48, 2-(S)-(4-Chloro-phenyl)-4-morpholin-4-yl-4-oxo-N-[1-(S)-phenyl-2-(4-trifluoromethoxy-phenylamino)-ethyl]-butyramide]	++ (++, >100)		+ (+, >10)	++ (++, >100)	100 to 1000 nM
CC(C)[C@@H](CNc1ccc(OC(F)(F)F)cc1)NC(=O)[C@@H](CC(=O)N1CCOCC1)c1ccc(C(F)(F)F)cc1 [Example 55, N-{2-Methyl-1-(S)-[(4-trifluoromethoxy-phenylamino)-methyl]-propyl}-4-morpholin-4-yl-4-oxo-2-(S)-(4-trifluoromethyl-phenyl)-butyramide]	++ (++, >100)	100 to 1000 nM	+++ (+++, >1000)	++ (++, >100)	
CC(C)[C@@H](CNc1ccc(OC(F)(F)F)cc1)NC(=O)[C@@H](CC(=O)N1CCOCC1)c1ccc(F)cc1 [Example 41, 2-(S)-(4-Fluoro-phenyl)-N-{2-methyl-1-(S)-[(4-trifluoromethoxy-phenylamino)-methyl]-propyl}-4-morpholin-4-yl-4-oxo-butyramide]	++ (++, >100)	< 100 nM	+ (+, >10)	+++ (+++, >1000)	
C[C@@H](CNc1ccc(OC(F)(F)F)cc1)NC(=O)[C@@H](CC(=O)N1CCS(=O)(=O)CC1)CC1CCCCC1 [Example 58, 2-(R)-Cyclohexylmethyl-4-(1,1-dioxo-thiomorpholin-4-yl)-N-[1-(S)-methyl-2-(4-trifluoromethoxy-phenylamino)-ethyl]-4-oxo-butyramide]	+ (+, >10)		++ (++, >100)	++ (++, >100)	100 to 1000 nM
CC(=O)N1CCN(C(=O)C[C@@H](CC2CCCCC2)C(=O)N[C@@H](C)CNc2ccc(OC(F)(F)F)cc2)CC1 [Example 52, 4-(4-Acetyl-piperazin-1-yl)-2-(R)-cyclohexylmethyl-N-[1-(S)-methyl-2-(4-trifluoromethoxy-phenylamino)-ethyl]-4-oxo-butyramide]	++ (++, >100)		+ (+, >10)	++ (++, >100)	100 to 1000 nM

Source: patent publication US7732449B2, “Inhibitors of cathepsin S” (IRM LLC, priority 2003, dated 2010)
